US11040981B2, “Pyrrolotriazine compounds and methods of inhibiting TAM kinases” (Syros Pharmaceuticals, Inc., priority 2017, dated 2021)

Experiments:
TYRO3 = target: T1, TYRO3 (Homo sapiens, UniProt Q06418); assay: TR-FRET kinase activity assay, TYRO3; type: biochemical; settings: ATP at Km, 60 minutes
T1 sequence (Q06418 41-890): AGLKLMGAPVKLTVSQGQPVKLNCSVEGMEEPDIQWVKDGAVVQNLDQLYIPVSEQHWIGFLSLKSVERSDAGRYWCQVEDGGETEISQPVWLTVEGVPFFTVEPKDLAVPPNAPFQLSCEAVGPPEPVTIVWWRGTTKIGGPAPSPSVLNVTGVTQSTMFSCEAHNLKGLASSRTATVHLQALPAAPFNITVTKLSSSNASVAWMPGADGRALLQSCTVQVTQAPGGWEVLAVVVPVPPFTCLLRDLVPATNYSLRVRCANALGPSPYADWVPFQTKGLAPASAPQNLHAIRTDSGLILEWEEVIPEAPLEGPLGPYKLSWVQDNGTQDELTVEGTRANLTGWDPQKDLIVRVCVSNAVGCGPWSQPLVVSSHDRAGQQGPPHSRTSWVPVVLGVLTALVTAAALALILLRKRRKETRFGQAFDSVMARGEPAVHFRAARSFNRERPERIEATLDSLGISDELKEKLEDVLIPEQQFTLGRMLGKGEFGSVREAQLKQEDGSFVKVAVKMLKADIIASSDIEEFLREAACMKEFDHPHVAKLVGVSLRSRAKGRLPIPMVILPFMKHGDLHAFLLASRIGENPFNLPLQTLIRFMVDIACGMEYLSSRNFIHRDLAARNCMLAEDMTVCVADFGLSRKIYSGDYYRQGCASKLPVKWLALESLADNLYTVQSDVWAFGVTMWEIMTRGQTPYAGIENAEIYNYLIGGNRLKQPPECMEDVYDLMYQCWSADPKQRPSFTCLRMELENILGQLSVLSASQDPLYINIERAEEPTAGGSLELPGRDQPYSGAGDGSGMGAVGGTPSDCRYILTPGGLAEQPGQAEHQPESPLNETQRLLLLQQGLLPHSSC
How it was run: (§1)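 Compounds were tested against each kinase with ATP set at its own Km and a labelled tyrosine peptide substrate. Following one hour at room temperature in buffer containing 10 mM MgCl2 and 1 mM DTT, phosphorylated product was detected by Europium antibody TR-FRET after EDTA quench, and IC50 values were calculated.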

MERTK = target: T2, MERTK (Homo sapiens, UniProt Q12866); assay: TR-FRET kinase activity assay, MERTK; type: biochemical; settings: for IC50: TR-FRET activity assay, ATP at Km, 60 minutes, read-out: Mer IC50
T2 sequence (Q12866 21-999): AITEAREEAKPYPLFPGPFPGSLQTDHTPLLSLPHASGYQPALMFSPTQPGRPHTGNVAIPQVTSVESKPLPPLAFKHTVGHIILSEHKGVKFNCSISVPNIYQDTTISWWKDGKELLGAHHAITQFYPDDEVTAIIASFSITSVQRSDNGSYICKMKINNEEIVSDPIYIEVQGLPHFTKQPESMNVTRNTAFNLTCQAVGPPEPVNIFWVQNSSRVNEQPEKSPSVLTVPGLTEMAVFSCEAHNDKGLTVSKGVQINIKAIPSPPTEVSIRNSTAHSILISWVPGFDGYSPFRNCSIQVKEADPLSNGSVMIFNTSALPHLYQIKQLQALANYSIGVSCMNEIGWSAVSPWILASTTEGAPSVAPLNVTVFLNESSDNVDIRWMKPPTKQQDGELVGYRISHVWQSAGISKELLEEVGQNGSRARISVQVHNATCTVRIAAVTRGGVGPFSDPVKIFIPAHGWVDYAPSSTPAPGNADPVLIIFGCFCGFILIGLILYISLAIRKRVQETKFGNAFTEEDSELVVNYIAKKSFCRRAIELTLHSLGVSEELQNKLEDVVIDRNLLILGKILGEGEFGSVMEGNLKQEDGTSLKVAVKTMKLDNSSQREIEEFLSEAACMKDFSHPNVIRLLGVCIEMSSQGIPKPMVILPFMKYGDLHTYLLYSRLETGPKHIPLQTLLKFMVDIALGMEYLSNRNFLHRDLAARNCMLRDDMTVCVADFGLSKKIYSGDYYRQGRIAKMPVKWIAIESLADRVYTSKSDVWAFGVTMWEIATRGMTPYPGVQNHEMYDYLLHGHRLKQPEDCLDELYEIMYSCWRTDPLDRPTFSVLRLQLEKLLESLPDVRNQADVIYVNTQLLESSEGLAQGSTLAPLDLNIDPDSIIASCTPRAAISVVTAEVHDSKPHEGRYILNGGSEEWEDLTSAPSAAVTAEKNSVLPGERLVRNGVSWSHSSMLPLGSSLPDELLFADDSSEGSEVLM
How it was run: as §1

[1] = ratio calculated as FLT3 IC50/Mer IC50
[2] = ratio of Mer to FLT3: FLT3 IC50/Mer IC50

Structure (SMILES) | IC50 (TYRO3) [nM] | IC50 (MERTK) [nM] | FLT3/Mer ratio (FLT3 IC50/Mer IC50) (MERTK; [1]) | FLT3/Mer ratio (FLT3 IC50/Mer IC50) (MERTK; [2])
COC[C@H](C)Nc1ncc2c(-c3cnn([C@H]4CCN(C)C4=O)c3)cc([C@H]3CC[C@H](O)CC3)n2n1 [Compound 470] | ≤ 100 | ≤ 100 | +++ (“+++” represents a ratio of >100) | 
COC[C@H](C)Nc1ncc2c(C3=CCN(C(=O)OC(C)(C)C)CC3)cc([C@H]3CC[C@H](O)CC3)n2n1 [Compound 425] | ≤ 100 | ≤ 100 | +++ (“+++” represents a ratio of >100) | 
COC[C@H](C)Nc1ncc2c(-c3ccc(CC(=O)O)cc3)cc([C@H]3CC[C@H](O)CC3)n2n1 [Compound 133] | ≤ 100 | ≤ 100 |  | +++ (“+++” represents a ratio of >100)
COC[C@H](C)Nc1ncc2c(-c3cnn(CC(C)(C)N4CCOCC4)c3)cc([C@H]3CC[C@H](O)CC3)n2n1 [Compound 507] | ≤ 100 | ≤ 100 | +++ (“+++” represents a ratio of >100) | 
CC[C@H](C)Nc1ncc2c(C3=CCNCC3)cc([C@H]3CC[C@H](O)CC3)n2n1 [Compound 130] | ≤ 100 | ≤ 100 |  | +++ (“+++” represents a ratio of >100)
COC[C@H](C)Nc1ncc2c(-c3ccnc(N4CCC5(COC5)C4)c3)cc([C@H]3CC[C@H](O)CC3)n2n1 [Compound 493] | ≤ 100 | ≤ 100 | +++ (“+++” represents a ratio of >100) | 
COC[C@H](C)Nc1ncc2c(-c3cnn(CC4CCO4)c3)cc([C@H]3CC[C@H](O)CC3)n2n1 (stereo partly drawn) [Compound 439] | ≤ 100 | ≤ 100 | +++ (“+++” represents a ratio of >100) | 
COC[C@H](C)Nc1ncc2c(-c3ccnc(N4CCc5nc(C)sc5C4)c3)cc([C@H]3CC[C@H](O)CC3)n2n1 [Compound 509] | ≤ 100 | ≤ 100 | +++ (“+++” represents a ratio of >100) | 
COC[C@H](C)Nc1ncc2c(-c3cnn(C(C)(C)CN4CCOCC4)c3)cc([C@H]3CC[C@H](O)CC3)n2n1 [Compound 459] | ≤ 100 | ≤ 100 | +++ (“+++” represents a ratio of >100) | 
COC[C@H](C)Nc1ncc2c(-c3cnn(C(C)(C)C(=O)C4CCc5sc(C)nc5C4)c3)cc([C@H]3CC[C@H](O)CC3)n2n1 (stereo partly drawn) [Compound 496] | ≤ 100 | ≤ 100 | +++ (“+++” represents a ratio of >100) | 
COC[C@H](C)Nc1ncc2c(-c3cnn(C(C)(C)c4nnc(C)o4)c3)cc([C@H]3CC[C@H](O)CC3)n2n1 [Compound 440] | ≤ 100 | ≤ 100 | +++ (“+++” represents a ratio of >100) | 
COC[C@H](C)Nc1ncc2c(C3=C[C@H]4CCC(C3)N4C(C)=O)cc([C@H]3CC[C@H](O)CC3)n2n1 [Compound 468] | ≤ 100 | ≤ 100 | +++ (“+++” represents a ratio of >100) | 
COC[C@H](C)Nc1ncc2c(-c3ccnc(N4C[C@H]5CC[C@@H](C4)O5)c3)cc([C@H]3CC[C@H](O)CC3)n2n1 [Compound 445] | ≤ 100 | ≤ 100 | +++ (“+++” represents a ratio of >100) | 
COC[C@H](C)Nc1ncc2c(-c3cnn(C(C)(C)C(=O)N4CCN(C)CC4)c3)cc([C@H]3CC[C@H](O)CC3)n2n1 [Compound 466] | ≤ 100 | ≤ 100 | +++ (“+++” represents a ratio of >100) | 
COC[C@H](C)Nc1ncc2c(C3=C[C@@H]4CC[C@H](C3)N4)cc([C@H]3CC[C@H](O)CC3)n2n1 [Compound 461] | ≤ 100 | ≤ 100 | +++ (“+++” represents a ratio of >100) | 
COC[C@H](C)Nc1ncc2c(-c3cnn(C[C@H]4CC(=O)N(C)C4)c3)cc([C@H]3CC[C@H](O)CC3)n2n1 [Compound 475] | ≤ 100 | ≤ 100 | +++ (“+++” represents a ratio of >100) | 
COC[C@H](C)Nc1ncc2c(-c3cnn(C4COC4)c3)cc(-c3ccc(O)nc3)n2n1 [Compound 501] | ≤ 100 | ≤ 100 | ++ (“++” represents a ratio of between 10 and 100) | 
COC[C@H](C)Nc1ncc2c(-c3ccnc(N4CCC5(CC4)COC5)c3)cc([C@H]3CC[C@H](O)CC3)n2n1 [Compound 427] | ≤ 100 | ≤ 100 | +++ (“+++” represents a ratio of >100) | 
COC[C@H](C)Nc1ncc2c(-c3ccnc(N4CCN(S(=O)(=O)C(F)(F)F)CC4)c3)cc([C@H]3CC[C@H](O)CC3)n2n1 [Compound 487] | ≤ 100 | ≤ 100 | +++ (“+++” represents a ratio of >100) | 
CCC1(Nc2ncc3c(-c4ccc(CN5CCN(C)CC5)cc4)cc([C@H]4CC[C@H](O)CC4)n3n2)CCC1 [Compound 126] | 100 to 1000 | ≤ 100 |  | ++ (“++” represents a ratio of between 10 and 100)
COC[C@H](C)Nc1ncc2c(-c3cnn(C4COC4)c3)cc(C3CCOCC3)n2n1 [Compound 503] | ≤ 100 | ≤ 100 | +++ (“+++” represents a ratio of >100) | 
COC[C@H](C)Nc1ncc2c(-c3cnn(C(C)(C)C(=O)N4CCC(C)(O)CC4)c3)cc([C@H]3CC[C@H](O)CC3)n2n1 [Compound 450] | ≤ 100 | ≤ 100 | +++ (“+++” represents a ratio of >100) | 
COC[C@H](C)Nc1ncc2c(-c3ccnc(N4CCN(S(=O)(=O)C5CC5)CC4)c3)cc([C@H]3CC[C@H](O)CC3)n2n1 [Compound 491] | ≤ 100 | ≤ 100 | +++ (“+++” represents a ratio of >100) | 
COC[C@H](C)Nc1ncc2c(-c3cnn(C(C)(C)C(=O)N4Cc5nc(C)sc5C4)c3)cc([C@H]3CC[C@H](O)CC3)n2n1 [Compound 495] | ≤ 100 | ≤ 100 | +++ (“+++” represents a ratio of >100) | 
COC[C@H](C)Nc1ncc2c(-c3ccnc(N4Cc5nc(C)sc5C4)c3)cc([C@H]3CC[C@H](O)CC3)n2n1 [Compound 479, (trans)-4-(2-(((S)-1-methoxypropan-2-yl)amino)-5-(2-(2-methyl-4H-pyrrolo[3,4-d]thiazol-5(6H)-yl)pyridin-4-yl)pyrrolo[2,1-f][1,2,4]triazin-7-yl)cyclohexanol] | ≤ 100 | ≤ 100 | +++ (“+++” represents a ratio of >100) | 
COC[C@H](C)Nc1ncc2c(-c3cccc(N4C[C@H]5COC[C@H]5C4)c3)cc([C@H]3CC[C@H](O)CC3)n2n1 [Compound 464] | ≤ 100 | ≤ 100 | +++ (“+++” represents a ratio of >100) | 
